From patent US20260022142A1, “MACROCYCLIC IMMUNOMODULATORS” (Bristol-Myers Squibb Company, priority 2022, published 2026) come the findings set out here.

The structures appear in SMILES notation. pIC50: −log10 of the molar value. Bridge positions count the residues as written; N and C are the ends. Square brackets hold non-standard residues; d marks the D form. Peptide text beside a SMILES is read from it. * marks the point of attachment. ξ: configuration not given here. Phe(4-COOH) = N[C@@H](Cc1ccc(C(=O)O)cc1)C(=O)O; Bip = N[C@@H](Cc1ccc(-c2ccccc2)cc1)C(=O)O; Ala(2-furyl) = N[C@@H](Cc1ccco1)C(=O)O; NH(CH2)14COOH = O=C(O)CCCCCCCCCCCCCCN*; Phe(3-Me) = Cc1cccc(C[C@H](N)C(=O)O)c1; NH(CH2)12COOH = O=C(O)CCCCCCCCCCCCN*; Phe(2-F) = N[C@@H](Cc1ccccc1F)C(=O)O; Val(3-OH) = CC(C)(O)[C@H](N)C(=O)O; Val(3-F) = CC(C)(F)[C@H](N)C(=O)O; hArg = N=C(N)NCCCC[C@H](N)C(=O)O; 4Pal = N[C@@H](Cc1ccncc1)C(=O)O; Cha = N[C@@H](CC1CCCCC1)C(=O)O; Cit = NC(=O)NCCC[C@H](N)C(=O)O; Thr(3ξ) = CC(O)[C@H](N)C(=O)O; dDab = NCC[C@@H](N)C(=O)O; 4Abz = Nc1ccc(C(=O)O)cc1; Carboxymethyl = O=C(O)C*; Orn = NCCC[C@H](N)C(=O)O; Aun = NCCCCCCCCCCC(=O)O; Dab = NCC[C@H](N)C(=O)O; Dap = NC[C@H](N)C(=O)O; AEEA = NCCOCCOCC(=O)O

T1 sequence (Q15116 25-288): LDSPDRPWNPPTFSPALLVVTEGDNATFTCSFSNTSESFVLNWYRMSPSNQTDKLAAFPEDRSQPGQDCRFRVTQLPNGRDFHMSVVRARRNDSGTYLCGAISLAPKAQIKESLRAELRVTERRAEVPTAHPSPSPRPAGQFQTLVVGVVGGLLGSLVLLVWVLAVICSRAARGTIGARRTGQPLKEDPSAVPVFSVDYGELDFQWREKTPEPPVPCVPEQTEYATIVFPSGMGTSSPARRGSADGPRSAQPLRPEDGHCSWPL

This experiment has as its target T1, PD-1/PD-L1 interaction (PE-labeled human PD-L1-Ig binding to Jurkat cell line over-expressing human PD-1) (Homo sapiens, UniProt Q15116).
T1 construct: expressed in transfected cells; host or cells: Jurkat
The experiment in a line: Jurkat-PD-1 Cell Binding High-Content Screening Assay (CBA). As to conditions: Jurkat cell line over-expressing human PD-1; PE-labeled PD-L1-Ig 20 nM final; read-out: Jurkat hPD1-PDL1 IC50. It is filed as cell-based. Put shortly: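 Read-out is high-content imaging of cell-bound phycoerythrin-tagged PD-L1-Ig on fixed, Hoechst-counterstained Jurkat cells that over-express human PD-1. Compound exposure lasts 2 h at 37° C before the labeled ligand (20 nM final) is added for a further hour.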
Usually pIC50 stands for the negative decadic logarithm of the IC50, by convention in mol/L. `CC(C)C[C@H]1NC(=O)[C@H](CCCN)NC(=O)[C@H](CCN)NC(=O)[C@H](Cc2ccc(-c3ccccc3)cc2)NC(=O)[C@H](C(C)C)NC(=O)[C@H](Cc2c[nH]c3ccccc23)NC(=O)[C@H](CC(=O)O)NC(=O)[C@H](Cc2ccc(OCC(=O)O)cc2)NC(=O)[C@H](CN)NC(=O)CSC[C@@H](C(=O)N[C@@H](CC(N)=O)C(=O)NCC(=O)NCCCCCCCCCCCCCCC(=O)O)NC(=O)[C@H](CO)NC(=O)[C@H](C(C)C)NC(=O)[C@H](CC2CCCCC2)NC(=O)[C@H](CCN)NC1=O` [Compound 3008] ({CH2CO}-[Dap]Y(Carboxymethyl)DWV[Bip][Dab][Orn][dL][Dab][Cha]VSCNG-{NH(CH2)14COOH}; thioether N-14): the pIC50 is 6.26.
For `CC[C@H](C)[C@@H]1NC(=O)[C@H](Cc2ccc(-c3ccccc3)cc2)NC(=O)[C@H](C(C)C)NC(=O)[C@H](Cc2cccc(C)c2)NC(=O)[C@H](CC(=O)O)NC(=O)[C@H](Cc2ccc(C(=O)O)cc2)NC(=O)[C@H](Cc2ccncc2)NC(=O)CSC[C@@H](C(=O)N[C@@H](CCCCN)C(=O)NCCCCCCCCCCC(=O)O)NC(=O)[C@H]([C@@H](C)O)NC(=O)[C@H](C(C)C)NC(=O)[C@H](CC2CCCCC2)NC(=O)[C@H](CCN)NC(=O)[C@@H](CC(C)C)NC(=O)[C@H](CCCN)NC1=O` [Compound 1185], the pIC50 was 7.35.
`CC(C)C[C@@H]1NC(=O)[C@H](Cc2c[nH]c3ccccc23)NC(=O)[C@H](CC(=O)O)NC(=O)[C@H](Cc2ccncc2)NC(=O)[C@H](Cc2ccc(OCC(=O)O)cc2)NC(=O)CSC[C@@H](C(=O)Nc2ccc(C(=O)NCCCCCCCCCCC(=O)O)cc2)NC(=O)[C@H](CCCN)NC(=O)[C@H](C(C)C)NC(=O)[C@H](CC2CCCCC2)NC(=O)[C@H](CCN)NC(=O)[C@@H](CC(C)C)NC(=O)[C@H](CCCN)NC(=O)[C@H](C(C)C)NC(=O)[C@H](Cc2ccc(-c3ccccc3)cc2)NC1=O` [Compound 1226] ({CH2CO}-Y(Carboxymethyl)[4Pal]DWL[Bip]V[Orn][dL][Dab][Cha]V[Orn]C[4Abz][Aun]-OH; thioether N-14): the pIC50 is 6.56.
Then `CC(C)C[C@H]1NC(=O)[C@H](CCCN)NC(=O)[C@H](C(C)C)NC(=O)[C@H](Cc2ccc(-c3ccccc3)cc2)NC(=O)[C@H](C(C)C)NC(=O)[C@H](Cc2c[nH]c3ccccc23)NC(=O)[C@H](CC(=O)O)NC(=O)[C@H](Cc2ccc(OCC(=O)O)cc2)NC(=O)[C@H](CN)NC(=O)CSCC(C(=O)N[C@H](C)C(=O)NCCCCCCCCCCC(=O)O)NC(=O)[C@H]([C@@H](C)O)NC(=O)[C@H](C(C)C)NC(=O)[C@H](CC2CCCCC2)NC(=O)[C@H](Cc2cnc[nH]2)NC1=O` (stereo partly shown) [Compound 1116], with 7.42.
For `Cc1cccc(C[C@@H]2NC(=O)[C@H](CC(=O)O)NC(=O)[C@H](Cc3ccc(OCC(=O)O)cc3)NC(=O)[C@H](Cc3ccncc3)NC(=O)CSC[C@@H](C(=O)N[C@@H](CO)C(=O)NCCCCCCCCCCC(=O)O)NC(=O)[C@H](CO)NC(=O)[C@H](C(C)(C)O)NC(=O)[C@H](CC3CCCCC3)NC(=O)[C@H](Cc3cnc[nH]3)NC(=O)[C@@H](CC(C)C)NC(=O)[C@H](CCCN)NC(=O)[C@H](Cc3ccc(OCC(=O)O)cc3)NC(=O)[C@H](Cc3ccc(-c4ccccc4)cc3)NC(=O)[C@H](Cc3ccc(OCC(=O)O)cc3)NC2=O)c1` [Compound 3722] ({CH2CO}-[4Pal]Y(Carboxymethyl)D[Phe(3-Me)]Y(Carboxymethyl)[Bip]Y(Carboxymethyl)[Orn][dL]H[Cha][Val(3-OH)]SCS[Aun]-OH; thioether N-14), the pIC50 is 7.39.
Turning to `Cc1cccc(C[C@@H]2NC(=O)[C@H](CC(=O)O)NC(=O)[C@H](Cc3ccc(OCC(=O)O)cc3)NC(=O)[C@H](C(C)O)NC(=O)CSC[C@@H](C(=O)NCCOCCOCC(=O)NCCCCCCCCCCC(=O)O)NC(=O)[C@H](Cc3cnc[nH]3)NC(=O)[C@H](C(C)O)NC(=O)[C@H](CC3CCCCC3)NC(=O)[C@H](CCN)NC(=O)[C@@H](CC(C)C)NC(=O)[C@H](CCCN)NC(=O)[C@H](C(C)C)NC(=O)[C@H](Cc3ccc(-c4ccccc4)cc3)NC(=O)[C@H](C(C)C)NC2=O)c1` (stereo partly drawn) [Compound 3703] ({CH2CO}-[Thr(3ξ)]Y(Carboxymethyl)D[Phe(3-Me)]V[Bip]V[Orn][dL][Dab][Cha][Thr(3ξ)]HC[AEEA][Aun]-OH; thioether N-14), the pIC50 was 7.63.
In the case of `Cc1cccc(C[C@@H]2NC(=O)[C@H](CC(=O)O)NC(=O)[C@H](Cc3ccc(OCC(=O)O)cc3)NC(=O)[C@H](CCN)NC(=O)CSC[C@@H](C(=O)N[C@@H](CCN)C(=O)NCCCCCCCCCCC(=O)O)NC(=O)[C@H](CO)NC(=O)[C@H](C(C)(C)O)NC(=O)[C@H](CC3CCCCC3)NC(=O)[C@H](Cc3c[nH]cn3)NC(=O)[C@@H](CC(C)C)NC(=O)[C@H](CCCN)NC(=O)[C@H](Cc3ccc(OCC(=O)O)cc3)NC(=O)[C@H](Cc3ccc(-c4ccccc4)cc3)NC(=O)[C@H](Cc3ccc(C(=O)O)cc3)NC2=O)c1` [Compound 3714] ({CH2CO}-[Dab]Y(Carboxymethyl)D[Phe(3-Me)][Phe(4-COOH)][Bip]Y(Carboxymethyl)[Orn][dL]H[Cha][Val(3-OH)]SC[Dab][Aun]-OH; thioether N-14) it was 7.91; in that of `Cc1cccc(C[C@@H]2NC(=O)[C@H](CC(=O)O)NC(=O)[C@H](Cc3ccc(OCC(=O)O)cc3)NC(=O)[C@H](CCCNC(=N)N)NC(=O)CSC[C@@H](C(=O)N[C@@H](CCN)C(=O)NCCCCCCCCCCC(=O)O)NC(=O)[C@H]([C@@H](C)O)NC(=O)[C@H](C(C)C)NC(=O)[C@H](CC3CCCCC3)NC(=O)[C@H](CCN)NC(=O)[C@@H](CC(C)C)NC(=O)[C@H](CCCN)NC(=O)[C@H](Cc3ccc(O)cc3)NC(=O)[C@H](Cc3ccc(-c4ccccc4)cc3)NC(=O)[C@H](C(C)(C)F)NC2=O)c1` [Compound 2125] ({CH2CO}-RY(Carboxymethyl)D[Phe(3-Me)][Val(3-F)][Bip]Y[Orn][dL][Dab][Cha]VTC[Dab][Aun]-OH; thioether N-14), 7.79.
For the molecule `CC(C)C[C@@H]1NC(=O)[C@H](Cc2c[nH]c3ccccc23)NC(=O)[C@H](CC(=O)O)NC(=O)[C@H](Cc2ccc(C(=O)O)cc2)NC(=O)[C@H](CCCCNC(=N)N)NC(=O)CSC[C@@H](C(=O)N[C@@H](C)C(=O)N[C@@H](CCN)C(=O)NCCCCCCCCCCCCCCC(=O)O)NC(=O)[C@H](CO)NC(=O)[C@H](C(C)C)NC(=O)[C@H](CC2CCCCC2)NC(=O)[C@H](Cc2c[nH]cn2)NC(=O)[C@@H](CC(C)C)NC(=O)[C@H](CCCN)NC(=O)[C@H](C(C)C)NC(=O)[C@H](Cc2ccc(-c3ccccc3)cc2)NC1=O` [Compound 3019] ({CH2CO}-[hArg][Phe(4-COOH)]DWL[Bip]V[Orn][dL]H[Cha]VSCA[Dab]-{NH(CH2)14COOH}; thioether N-14), the pIC50 was 6.47.
Then `CC(C)C[C@H]1NC(=O)[C@H](CCCN)NC(=O)[C@H](Cc2ccc(O)cc2)NC(=O)[C@H](Cc2ccc(-c3ccccc3)cc2)NC(=O)[C@H](C(C)C)NC(=O)[C@H](Cc2c[nH]c3ccccc23)NC(=O)[C@H](CC(=O)O)NC(=O)[C@H](Cc2ccc(OCC(=O)O)cc2)NC(=O)[C@H](C(C)O)NC(=O)CSC[C@@H](C(=O)N[C@H](CCN)C(=O)NCCCCCCCCCCC(=O)O)NC(=O)[C@H](Cc2ccco2)NC(=O)[C@H](C(C)C)NC(=O)[C@H](CC2CCCCC2)NC(=O)[C@H](CCN)NC1=O` (stereo partly drawn) [Compound 3422] ({CH2CO}-[Thr(3ξ)]Y(Carboxymethyl)DWV[Bip]Y[Orn][dL][Dab][Cha]V[Ala(2-furyl)]C[dDab][Aun]-OH; thioether N-14), with 7.11; and `Cc1cccc(C[C@@H]2NC(=O)[C@H](CC(=O)O)NC(=O)[C@H](Cc3ccc(OCC(=O)O)cc3)NC(=O)[C@H](CN)NC(=O)CSC[C@@H](C(=O)N[C@@H](CCN)C(=O)NCCOCCOCC(=O)NCCCCCCCCCCC(=O)O)NC(=O)[C@H](CCC(=O)O)NC(=O)[C@H](C(C)C)NC(=O)[C@H](Cc3ccccc3F)NC(=O)[C@H](CCN)NC(=O)[C@@H](CC(C)C)NC(=O)[C@H](CCCN)NC(=O)[C@H](Cc3ccc(OCC(=O)O)cc3)NC(=O)[C@H](Cc3ccc(-c4ccccc4)cc3)NC(=O)[C@H](Cc3ccc(C(=O)O)cc3)NC2=O)c1` [Compound 1266] ({CH2CO}-[Dap]Y(Carboxymethyl)D[Phe(3-Me)][Phe(4-COOH)][Bip]Y(Carboxymethyl)[Orn][dL][Dab][Phe(2-F)]VEC[Dab][AEEA][Aun]-OH; thioether N-14), with 7.85; and `Cc1cccc(C[C@@H]2NC(=O)[C@H](CC(=O)O)NC(=O)[C@H](Cc3ccc(OCC(=O)O)cc3)NC(=O)[C@H](CCN)NC(=O)CSC[C@@H](C(=O)N[C@@H](CCN)C(=O)NCCOCCOCC(=O)NCCOCCOCC(=O)NCCCCCCCCCCCCC(=O)O)NC(=O)[C@H](CCC(=O)O)NC(=O)[C@H](C(C)(C)O)NC(=O)[C@H](CC3CCCCC3)NC(=O)[C@H](CCN)NC(=O)[C@@H](CC(C)C)NC(=O)[C@H](CCCN)NC(=O)[C@H](Cc3ccc(C(=O)O)cc3)NC(=O)[C@H](Cc3ccc(-c4ccccc4)cc3)NC(=O)[C@H](Cc3ccc(C(=O)O)cc3)NC2=O)c1` [Compound 3759] ({CH2CO}-[Dab]Y(Carboxymethyl)D[Phe(3-Me)][Phe(4-COOH)][Bip][Phe(4-COOH)][Orn][dL][Dab][Cha][Val(3-OH)]EC[Dab][AEEA][AEEA]-{NH(CH2)12COOH}; thioether N-14), with 7.41.
In the case of `CC(C)C[C@H]1NC(=O)[C@H](CCCN)NC(=O)[C@H](C(C)C)NC(=O)[C@H](Cc2ccc(-c3ccccc3)cc2)NC(=O)[C@H](C(C)C)NC(=O)[C@H](Cc2c[nH]c3ccccc23)NC(=O)[C@H](CC(=O)O)NC(=O)[C@H](Cc2ccc(OCC(=O)O)cc2)NC(=O)[C@H](CCCNC(N)=O)NC(=O)CSC[C@@H](C(=O)N[C@@H](CCCCN)C(=O)NCCCCCCCCCCC(=O)O)NC(=O)[C@H](C(C)O)NC(=O)[C@H](C(C)C)NC(=O)[C@H](CC2CCCCC2)NC(=O)[C@H](Cc2cnc[nH]2)NC1=O` (stereo partly drawn) [Compound 3148] ({CH2CO}-[Cit]Y(Carboxymethyl)DWV[Bip]V[Orn][dL]H[Cha]V[Thr(3ξ)]CK[Aun]-OH; thioether N-14) it was 7.25.
